This note sets out measurements from patent US9481667B2, “Salts and solid forms of isoquinolinones and composition comprising and methods of using the same” (Infinity Pharmaceuticals, Inc., priority 2013, dated 2016).

In general, thermodynamic solubility refers to the concentration in solution at equilibrium with solid.

Each structure is given as a SMILES string. ≈ marks a conversion by molar mass, not a printed value. Where a name gives a salt, the structure may show the parent alone.

Common to all, as to format: physicochemical
The nature of data set [1]: Thermodynamic aqueous solubility. The note with it: aqueous, thermodynamic from solid.
The nature of data set [2]: Stability on standing at ambient/room conditions. The source says:
The bis-sulfuric acid salt is difficult to crystallise in an anhydrous environment. The experiment in methanol produced a clear solution, which then became an oil after solvent evaporation.

Data set [3] can be described thus: Storage at 40° C./75% RH (solid-state stability). Particulars: for Stability on storage at 40° C./75% RH: 1 week, solid form by XRPD.
Protocol: The crystalline solids were filtered, dried at ambient conditions, and stored at 40° C./75% RH for 1 week and analyzed by ^1H NMR/IC.
Samples from the screen using amorphous free base Compound 1 were analysed by ^1H-NMR and DSC, and re-analysis by XRPD was also carried out after drying at 50° C./vacuum and storage at 40° C./75% RH (the same sample was dried and stored at elevated humidity).
Data set [4] in a line: Storage at 25° C./93% RH (solid-state stability). The note with it: for Stability on storage at 25° C./93% RH: 1 week, solid form by XRPD.
The nature of data set [5]: Free base solubility assessment in solvents. The protocol:
Approximately 11 mg (0.022 mmol) portions of the free base Form 1 of Compound 1 (i.e., the compound of formula (I)) were weighed into 2 ml screw-topped HPLC vials. One of 15 solvents was added to each vial in a number of aliquots (up to 100 volumes), with shaking and if necessary with heating to 40° C., in an attempt to achieve dissolution.

Data set [6] in a line: Gravimetric vapour sorption (GVS). How it is done: Sorption isotherms were obtained using a Hiden IGASorp moisture sorption analyser, controlled by CFRSorp software. The sample temperature was maintained at 25° C. by a Huber re-circulating water bath. The humidity was controlled by mixing streams of dry and wet nitrogen, with a total flow rate of 250 ml/min. The relative humidity (RH) was measured by a calibrated Vaisala RH probe (dynamic range of 0-95% RH), located near the sample. The weight change, (mass relaxation) of the sample as a function of % RH was constantly monitored by the microbalance (accuracy ±0.001 mg). Typically 10-20 mg of sample was placed in a tared mesh stainless steel basket under ambient conditions. The sample was loaded and unloaded at 40% RH and 25° C. (typical room conditions). A moisture sorption isotherm was performed as outlined below (2 scans giving 1 complete cycle). The standard isotherm was performed at 25° C. at 10% RH intervals over a 0-90% RH range.
The software uses a least squares minimisation procedure together with a model of the mass relaxation, to predict an asymptotic value. The measured mass relaxation value must be within 5% of that predicted by the software, before the next % RH value is selected. The minimum equilibration time was set to 1 hour and the maximum to 4 hours. The sample was recovered after completion of the isotherm and re-analysed by XRPD.

[7] abbreviates: listed as Compound 1 Free Base Form 1.
Where [8] appears, read: listed as amorphous free base Compound 1.

As for `COc1cc(-c2cccc3cc([C@H](C)Nc4nc(N)ncc4C#N)n(-c4ccccc4)c(=O)c23)ccn1` [(S)-2-amino-4-((1-(8-(2-methoxypyridin-4-yl)-1-oxo-2-phenyl-1,2-dihydroisoquinolin-3-yl)ethyl)amino)pyrimidine-5-carbonitrile], in data set [1] (pH 1.9, water, 0.5 g scale-up salts, pH of solution reported separately), the thermodynamic solubility came out at 1900 µg/mL. Also, the Crystallinity after standing entry in data set [2] (RT, 24 hours) is “decreases”. The “Stability at ambient conditions” value in data set [2] (converts to Form 1 by hydration) was “unstable”.

As for `CC(=O)O.COc1cc(-c2cccc3cc([C@H](C)Nc4nc(N)ncc4C#N)n(-c4ccccc4)c(=O)c23)ccn1.COc1cc(-c2cccc3cc([C@H](C)Nc4nc(N)ncc4C#N)n(-c4ccccc4)c(=O)c23)ccn1` [Batch 2 of Form 6], in data set [3] (after 1 week), the “Stability at 40° C./75% RH” value was “Very slight changes”. In addition, in data set [4] (after 1 week), the “Stability at 25° C./93% RH” value is reported as “Very slight changes”.

For `COc1cc(-c2cccc3cc([C@H](C)Nc4nc(N)ncc4C#N)n(-c4ccccc4)c(=O)c23)ccn1` [Compound 1, (S)-2-amino-4-((1-(8-(2-methoxypyridin-4-yl)-1-oxo-2-phenyl-1,2-dihydroisoquinolin-3-yl)ethyl)amino)pyrimidine-5-carbonitrile], the “solvent volumes to dissolve” value is on record as 50 vol in data set [5] (2-MeTHF, free base Form 1, shaking, if necessary heating to 40° C.); 5 vol in data set [5] (DMSO, free base Form 1, shaking, if necessary heating to 40° C.); > 100 vol in data set [5] (EtOAC, free base Form 1, did not dissolve in up to 100 vol.); > 100 vol in data set [5] (EtOH/H2O, free base Form 1, did not dissolve in up to 100 vol.); > 100 vol in data set [5] (EtOH, free base Form 1, did not dissolve in up to 100 vol.); > 100 vol in data set [5] (H2O, free base Form 1, did not dissolve in up to 100 vol.). Moreover, the “solvent volumes to dissolve” value in data set [5] (MIBK, free base Form 1, shaking, if necessary heating to 40° C.) is recorded as 40 vol; in data set [5] (MeOH/anisole (50/50 v/v), free base Form 1, shaking, if necessary heating to 40° C.), 10 vol; in data set [5] (MeOH, free base Form 1, shaking, if necessary heating to 40° C.) it was 75 vol; in data set [5] (TBME, free base Form 1, did not dissolve in up to 100 vol.), > 100 vol; in data set [5] (THF, free base Form 1, shaking, if necessary heating to 40° C.), 40 vol; in data set [5] (acetone, free base Form 1, did not dissolve in up to 100 vol.) it was > 100 vol. Further, the “solvent volumes to dissolve” value in data set [5] (acetonitrile, free base Form 1, did not dissolve in up to 100 vol.) was > 100 vol; in data set [5] (anisole, free base Form 1, did not dissolve in up to 100 vol.), > 100 vol; in data set [5] (chloroform, free base Form 1, shaking, if necessary heating to 40° C.) it was 40 vol.

Consider `COc1cc(-c2cccc3cc([C@H](C)Nc4nc(N)ncc4C#N)n(-c4ccccc4)c(=O)c23)ccn1` [Form 1 of the 1,2-ethanedisulfonic acid salt of Compound 1] [(S)-2-amino-4-((1-(8-(2-methoxypyridin-4-yl)-1-oxo-2-phenyl-1,2-dihydroisoquinolin-3-yl)ethyl)amino)pyrimidine-5-carbonitrile], for which, in data set [3] (0.5 g scale-up salts), the “Storage 40° C./75% RH for 1 week: HPLC Purity” value was “HPLC Purity: Unchanged” and the “Storage 40° C./75% RH for 1 week: XRPD (D8)” value is listed as “XRPD (D8): Unchanged”. Also, the “Stability on storage at 40° C./75% RH” value in data set [3] is on record as “stable”. Also, in data set [3] (listed as mono-1,2-ethanedisulfonic acid salt), the “Stability on storage at 40° C./75% RH” value is on record as “stable”. Besides, in data set [4] (0.5 g scale-up salts), the “Storage 25° C./93% RH for 1 week: HPLC Purity” value is listed as “HPLC Purity: Unchanged” and the “Storage 25° C./93% RH for 1 week: XRPD (D8)” value was “XRPD (D8): Unchanged”. The “XRPD post GVS (C2)” value in data set [6] (0.5 g scale-up salts) was “Unchanged”. Also, the “GVS Single cycle” value in data set [6] (hygroscopicity, 25° C., 0-90% RH) is listed as “Moderately hygroscopic”.

As for `COc1cc(-c2cccc3cc([C@H](C)Nc4nc(N)ncc4C#N)n(-c4ccccc4)c(=O)c23)ccn1` [Form 1 of the free base of Compound 1, (S)-2-amino-4-((1-(8-(2-methoxypyridin-4-yl)-1-oxo-2-phenyl-1,2-dihydroisoquinolin-3-yl)ethyl)amino)pyrimidine-5-carbonitrile], the “Stability on storage at 40° C./75% RH” value in data set [3] is “stable”; in data set [3] (setting [7]), “No changes in form after 1 week”; in data set [3] (listed as Free base Form 1) it was “did not show any changes”. Further, the “Stability on storage at 25° C./93% RH” value in data set [4] was “converts to Form 3”; in data set [4] (setting [7]) it was “Conversion to Form 3 (FIG. 31)”; in data set [4] (listed as Free base Form 1), “conversion to Form 3”. Moreover, in data set [6], the “RH range in which hydration to Form 3 occurs” value is on record as 80-90 % RH. Moreover, the “GVS: form change with humidity” value in data set [6] (above 80% RH, listed as Free base Form 1) is listed as “hydrates to a higher hydrate above 80% RH, but this re-converts to Form 1 on desorption”. The “GVS: moisture on loading” value in data set [6] (loaded at 40% RH, 25° C., listed as Compound 1 Free Base Form 1) was determined as 0.7 % w/w. The same molecule registered a thermodynamic solubility in data set [1] (water, at pH 6.85) of 4 µg/mL (≈ 8.17 µM).

Take `COc1cc(-c2cccc3cc([C@H](C)Nc4nc(N)ncc4C#N)n(-c4ccccc4)c(=O)c23)ccn1` [amorphous free base of Compound 1, (S)-2-amino-4-((1-(8-(2-methoxypyridin-4-yl)-1-oxo-2-phenyl-1,2-dihydroisoquinolin-3-yl)ethyl)amino)pyrimidine-5-carbonitrile]: the “Stability on storage at 40° C./75% RH” value in data set [3] (setting [8]) is listed as “No changes after 1 week”. In addition, the “Storage at elevated humidity” value in data set [3] (elevated humidity conditions, solid form) is listed as “No crystallisation”. Further, the “Stability on storage at 25° C./93% RH” value in data set [4] (setting [8]) is on record as “No changes after 1 week”.
